Experimental data as given in patent US20140031217A1, “HERBICIDAL COMPOSITIONS COMPRISING 4-AMINO-3-CHLORO-5-FLUORO-6-(4-CHLORO-2-FLUORO-3-METHOXYPHENYL)PYRIDINE-2-CARBOXYLIC ACID OR A DERIVATIVE THEREOF AND AUXIN TRANSPORT INHIBITORS” (DOW AGROSCIENCES LLC, priority 2012, published 2014).

How the values were obtained:
Details in all cases: 20 DAA
CYPIR = test: Postemergence foliar-applied greenhouse weed control, CYPIR; format: in vivo, Cyperus iria L.
Description: (§1) Seeds or nutlets of the desired test plant species were planted in a soil matrix prepared by mixing a loam or sandy loam soil (e.g., 28.6 percent silt, 18.8 percent clay, and 52.6 percent sand, with a pH of about 5.8 and an organic matter content of about 1.8 percent) and calcareous grit in an 80 to 20 ratio. The soil matrix was contained in plastic pots with a volume of 1 quart and a surface area of 83.6 square centimeters (cm^2). When required to ensure good germination and healthy plants, a fungicide treatment and/or other chemical or physical treatment was applied. The plants were grown for 8-22 days in a greenhouse with an approximate 14 h photoperiod which was maintained at about 29° C. during the day and 26° C. during the night. Nutrients (Peters Excel® 15-5-15 5-Ca 2-Mg and iron chelate) were applied in the irrigation solution as needed and water was added on a regular basis. Supplemental lighting was provided with overhead metal halide 1000-Watt lamps as necessary. The plants were employed for testing when they reached the first through fourth true leaf stage.
(§2) Treatments consisted of the acid or esters of 4-amino-3-chloro-5-fluoro-6-(4-chloro-2-fluoro-3-methoxy-phenyl) pyridine-2-carboxylic acid (Compound A), each formulated as an SC (suspension concentrate), and various herbicidal components alone and in combination. Forms of compound A were applied on an acid equivalent basis.
(§3) Other herbicidal components were applied on an active ingredient basis and included auxin transport inhibiting (ATI) herbicides chlorflurenol (technical material), chlorflurenol-methyl (technical material), diflufenzopyr (technical material), diflufenzopyr sodium (technical material), flurenol-methyl (technical material) and naptalam (technical material).
(§4) Treatment requirements were calculated based upon the rates being tested, the concentration of active ingredient or acid equivalent in the formulation, and a 12 mL application volume at a rate of 187 L/ha.
(§5) For treatments comprised of formulated and technical compounds, weighed amounts of the technical materials were placed individually in 25 mL glass vials and dissolved in a volume of 97:3 v/v acetone/DMSO to obtain 12× stock solutions, and measured amounts of the formulated compounds were placed individually in 25 mL glass vials and diluted in a volume of 1.5% (v/v) crop oil concentrate or water to obtain 12× stock solutions. […] Application solutions were prepared by adding an appropriate amount of each stock solution (e.g., 1 mL) and diluted to the appropriate final concentrations with the addition of an appropriate amount of an aqueous mixture of 1.5% (v/v) crop oil concentrate so that the final spray solutions contained 1.25% (v/v) crop oil concentrate. When required, additional water and/or 97:3 v/v acetone/DMSO was added to individual application solutions so that the final acetone and DMSO concentrations of the application solutions being compared were 8.1% and 0.25%, respectively.
(§6) All stock solutions and applications solutions were visually inspected for compound compatibility prior to application. Spray solutions were applied to the plant material with an overhead Mandel track sprayer equipped with an 8002E nozzle calibrated to deliver 187 L/ha over an application area of 0.503 m^2 at a spray height of 18 to 20 inches (46 to 50 cm) above average plant canopy height. Control plants were sprayed in the same manner with the solvent blank.
(§7) The treated plants and control plants were placed in a greenhouse as described above and watered by sub-irrigation to prevent wash-off of the test compounds. After approximately 3 weeks, the condition of the test plants as compared with that of the untreated plants was determined visually and scored on a scale of 0 to 100 percent where 0 corresponds to no injury or growth inhibition and 100 corresponds to complete kill. […]

DIGSA = test: Postemergence foliar-applied greenhouse weed control, DIGSA; format: in vivo, Digitaria sanguinalis (L.) Scop.
Description: as §1, §2, §3, §4, §5, §6, §7

ECHCG [1] = test: Postemergence foliar-applied greenhouse weed control, ECHCG; format: in vivo, Echinochloa crusgalli (L.) Beauv.
Description: as §1, §2, §3, §4, §5, §6, §7

ECHCO = test: Postemergence foliar-applied greenhouse weed control, ECHCO; format: in vivo, Echinochloa colona (L.) Link
Description: as §1, §2, §3, §4, §5, §6, §7

IPOHE = test: Postemergence foliar-applied greenhouse weed control, IPOHE; format: in vivo, Ipomoea hederacea Jacq.
Description: as §1, §2, §3, §4, §5, §6, §7

LEFCH [2] = test: Postemergence foliar-applied greenhouse weed control, LEFCH; format: in vivo, Leptochloa chinensis (L.) Nees
Description: as §1, §2, §3, §4, §5, §6, §7

ECHCG [3] = test: In-water applied (paddy) greenhouse weed control, ECHCG; format: in vivo, Echinochloa crusgalli (L.) Beauv.
Description: (§8) Weed seeds or nutlets of the desired test plant species were planted in puddled soil (mud) prepared by mixing a shredded, non-sterilized mineral soil (50.5 percent silt, 25.5 percent clay, and 24 percent sand, with a pH of about 7.6 and an organic matter content of about 2.9 percent) and water at a 1:1 volumetric ratio. The prepared mud was dispensed in 365 mL aliquots into 16-ounce (oz.) non-perforated plastic pots with a surface area of 86.59 square centimeters (cm^2) leaving a headspace of 3 centimeters (cm) in each pot. Mud was allowed to dry overnight prior to planting or transplanting. Rice seeds were planted in Sun Gro MetroMix® 306 planting mixture, which typically has a pH of 6.0 to 6.8 and an organic matter content of about 30 percent, in plastic plug trays. Seedlings at the second or third leaf stage of growth were transplanted into 840 mL of mud contained in 32-oz. non-perforated plastic pots with a surface area of 86.59 cm^2 4 days prior to herbicide application. The paddy was created by filling the headspace of the pots with 2.5 to 3 cm of water. When required to ensure good germination and healthy plants, a fungicide treatment and/or other chemical or physical treatment was applied. The plants were grown for 4-22 days in a greenhouse with an approximate 14 h photoperiod which was maintained at about 29′C during the day and 26° C. during the night. Nutrients were added as Osmocote® (19:6:12, N:P:K+minor nutrients) at 2 g per 16-oz. pot and 4 g per 960-mL 32-oz. pot. Water was added on a regular basis to maintain the paddy flood, and supplemental lighting was provided with overhead metal halide 1000-Watt lamps as necessary. The plants were employed for testing when they reached the second or third true leaf stage.
(§9) Treatments consisted of the acid or esters of 4-amino-3-chloro-5-fluoro-6-(4-chloro-2-fluoro-3-methoxy-phenyl)pyridine-2-carboxylic acid (compound A) each formulated as an SC and various herbicidal components alone and in combination. Forms of compound A were applied on an acid equivalent basis.
(§10) Other herbicidal components were applied on an active ingredient basis and included auxin transport inhibiting (ATI) herbicides chlorflurenol-methyl (technical material), chlorflurenol (technical material), diflufenzopyr (technical material), dilfufenzopyr sodium (technical material), flurenol-methyl (technical material,) and naptalam (technical material).
(§11) Treatment requirements for each compound or herbicidal component were calculated based upon the rates being tested, the concentration of active ingredient or acid equivalent in the formulation, an application volume of 2 mL per component per pot, and an application area of 86.59 cm^2 per pot.
(§12) For formulated compounds, a measured amount was placed in an individual 100 or 200 mL glass vial and was dissolved in a volume of 1.25% (v/v) Agri-Dex® crop oil concentrate to obtain application solutions.
(§13) For technical grade compounds, a weighed amount was placed in an individual 100 to 200 mL glass vial and was dissolved in a volume of acetone to obtain concentrated stock solutions. […] The concentrated stock solutions obtained were diluted with an equivalent volume of an aqueous mixture containing 2.5% (v/v) crop oil concentrate so that the final application solutions contained 1.25% (v/v) crop oil concentrate.
(§14) Applications were made by injecting with a pipetter appropriate amounts of the application solutions, individually and sequentially, into the aqueous layer of the paddy. Control plants were treated in the same manner with the solvent blank. Applications were made so that all treated plant material received the same concentrations of acetone and crop oil concentrate.
(§15) The treated plants and control plants were placed in a greenhouse as described above and water was added as needed to maintain a paddy flood. […]

ECHOR = test: In-water applied (paddy) greenhouse weed control, ECHOR; format: in vivo, Echinochloa oryzoides (Ard.) Fritsch
Description: as §8, §9, §10, §11, §12, §13, §14, §15

LEFCH [4] = test: In-water applied (paddy) greenhouse weed control, LEFCH; format: in vivo, Leptochloa chinensis (L.) Nees
Description: as §8, §9, §10, §11, §12, §13, §14, §15

SCPMA = test: In-water applied (paddy) greenhouse weed control, SCPMA; format: in vivo
Description: as §8, §9, §10, §11, §12, §13, §14, §15

Q: COC(=O)C1(O)c2ccccc2-c2ccc(Cl)cc21 (stereo not shown) [Chlorflurenol-Methyl, methyl 2-chloro-9-hydroxy-9H-fluorene-9-carboxylate, reference compound] was tested. Which “Visual Weed Control (%) Obs” value (CYPIR; 68.75 gai/ha) did it give?
A: Its value is 0%.

Q: And the “Visual Weed Control (%) Obs” value (CYPIR; 137.5 gai/ha)?
A: The value was 0%.

Q: And the “Visual Weed Control (%) Obs” value (CYPIR; 275 gai/ha)?
A: Its value is 0%.

Q: And the “Visual Weed Control (%) Obs” value (DIGSA; 68.75 gai/ha)?
A: The value was 0%.

Q: And the “Visual Weed Control (%) Obs” value (DIGSA; 137.5 gai/ha)?
A: Its value is 0%.

Q: And the “Visual Weed Control (%) Obs” value (DIGSA; 275 gai/ha)?
A: Its value is 0%.

Q: And the “Visual Weed Control (%) Obs” value (ECHCG [1]; 68.75 gai/ha)?
A: Its value is 0%.

Q: What about the “Visual Weed Control (%) Obs” value (ECHCG [1]; 137.5 gai/ha) of the same compound?
A: Its value is 0%.

Q: And the “Visual Weed Control (%) Obs” value (ECHCG [1]; 275 gai/ha)?
A: The value was 0%.

Q: And the “Visual Weed Control (%) Obs” value (ECHCO; 68.75 gai/ha)?
A: The value was 0%.

Q: And the “Visual Weed Control (%) Obs” value (ECHCO; 137.5 gai/ha)?
A: The value was 0%.

Q: What about the “Visual Weed Control (%) Obs” value (ECHCO; 275 gai/ha) of the same compound?
A: The value was 0%.

Q: What about the “Visual Weed Control (%) Obs” value (IPOHE; 137.5 gai/ha) of the same compound?
A: Its value is 50%.

Q: And the “Visual Weed Control (%) Obs” value (IPOHE; 275 gai/ha)?
A: Its value is 55%.

Q: And the “Visual Weed Control (%) Obs” value (LEFCH [2]; 68.75 gai/ha)?
A: The value was 0%.

Q: And the “Visual Weed Control (%) Obs” value (LEFCH [2]; 137.5 gai/ha)?
A: Its value is 10%.

Q: And the “Visual Weed Control (%) Obs” value (LEFCH [2]; 275 gai/ha)?
A: The value was 10%.

Q: What about the “Visual Weed Control (%) Obs” value (ECHCG [3]; 275 gai/ha) of the same compound?
A: Its value is 15%.

Q: What about the “Visual Weed Control (%) Obs” value (ECHCG [3]; 550 gai/ha) of the same compound?
A: The value was 20%.

Q: And the “Visual Weed Control (%) Obs” value (ECHOR; 275 gai/ha)?
A: Its value is 20%.

Q: What about the “Visual Weed Control (%) Obs” value (ECHOR; 550 gai/ha) of the same compound?
A: The value was 10%.

Q: What about the “Visual Weed Control (%) Obs” value (LEFCH [4]; 275 gai/ha) of the same compound?
A: The value was 0%.

Q: What about the “Visual Weed Control (%) Obs” value (LEFCH [4]; 550 gai/ha) of the same compound?
A: The value was 0%.

Q: And the “Visual Weed Control (%) Obs” value (SCPMA; 275 gai/ha)?
A: Its value is 75%.

Q: And the “Visual Weed Control (%) Obs” value (SCPMA; 550 gai/ha)?
A: The value was 80%.
